Test results published in patent publication US10159254B2, “Weed control methods” (Syngenta Participations AG, priority 2013, dated 2018).
“And” between values parts separate entries of the source, which are not always exact repeats. Identical values can stand only once.

Columns and labels:
SYHT0H2 soybeans [1] = assay: Greenhouse: water-soluble iron compounds safening mesotrione, maximum injury; details: mesotrione 420 g ai/ha, additive none; maximum injury of 6, 9, 16 days after treatment
Description: An experiment is conducted to look at the safening effect of a variety of water-soluble iron-containing compounds. SYHT0H2 soybean plants are grown in small pots filled with a greenhouse potting mix. […] In all cases, mesotrione was applied at 420 g ai/ha and all treatments contained liquid ammonium sulphate at 2.5% v/v and NIS at 0.25% v/v. The application rates of iron-containing compounds indicated are iron equivalent rates. […] Percent injury levels were assessed 6, 9, and 16 days after treatment. Data presented are maximum injury occurring from any of the treatments at any time during the experiment.

[2] = test system: Velvetleaf (Abutilon theophrasti); assay: Greenhouse weed control: HPPD inhibitors with or without Sequestrene 138Fe, velvetleaf; type: in vivo; details: percent velvetleaf control 19 DAT
Description: Effect of Tank Mix Applications of HPPD Inhibitors and Sequestrene® 138Fe on Velvetleaf Control. Percent Control Assessed 19 DAT
A greenhouse experiment is conducted to determine the effect of chelated iron on weed control in the greenhouse. Velvetleaf (Abutilon theophrasti) and common waterhemp (Amaranthus rudis) plants are grown in 4×4-inch pots filled with a greenhouse potting mix. When the plants reached the 2 to 3 inch height (2 to 3 leaf stage), they are sprayed with a reduced rate of an HPPD inhibitor alone or in a tank mix combination with Sequestrene 138Fe at 140 g/ha (equivalent to 8.4 g iron/hectare) or 280 g/ha (equivalent to 16.8 g iron/hectare). […] Observations on percent control are recorded 12, 19, and 25 days after treatment.

[3] = test system: tobacco line over-expressing HPPD from Pseudomonas florescens; assay: Transgenic tobacco herbicide damage, mesotrione with or without Sequestrene 138; type: in vivo, Nicotiana tabacum cv Samsun (tobacco)
Description: (§1) Effect of Iron Chelates in Mitigating Foliar Bleaching Injury from HPPD Inhibiting Herbicides Across Various Transgenic HPPD Tolerant Tobacco Events Over-expressing HPPD Genes from Different Origins
(§2) This experiment is carried out to determine whether iron chelates can mitigate the bleaching injury from HPPD inhibiting herbicides across various transgenic HPPD tolerant tobacco events over-expressing HPPD genes from different origins. These experiments are conducted using three distinct HPPD-overexpressing Nicotiana tabacum cv Samsun (tobacco) lines, one over-expressing wheat HPPD, one overexpressing an Avena HPPD and one over-expressing a HPPD from a bacterial source, Pseudomonas florescens. For each transgenic line, five identical clonal plants were sprayed with each herbicide treatment. Two untransformed clonal tobacco plants are also sprayed ([…]) with each herbicide treatment. Assessments are carried out 3, 7 and 14 days after herbicide application.
(§3) All scores represent average % herbicide damage. […] An equivalent safening effect is not observed when the same chemical treatments are applied to wild type plants.

[4] = test system: tobacco line over-expressing wheat HPPD; assay: as above; type: in vivo, Nicotiana tabacum cv Samsun (tobacco)
Description: as §1, §2, §3

[5] = test system: tobacco line overexpressing Avena HPPD; assay: as above; type: in vivo, Nicotiana tabacum cv Samsun (tobacco)
Description: as §1, §2, §3

SYHT0H2 soybeans [6] = assay: Greenhouse: Sequestrene 138Fe rate series, percent injury from HPPD-inhibitors at 7 DAT; type: in vivo, soybean; details: mesotrione 420, bicyclopyrone 200, tembotrione 368, topramezone 72 g/ha
Description: Effect of Sequestrene® 138Fe on Percent Injury from Various HPPD-inhibitors on SYHT0H2 Soybeans. Injury Assessed at Seven Days after Treatment (7 DAT)
SYHT0H2 soybeans are grown in 4×4-inch pots filled with a greenhouse potting mix. When the plants reach the V2-V3 growth stage, they are treated with an HPPD inhibitor applied alone or in a tank mixture with Sequestrene 138Fe at various rates ranging from 140 g product/ha (equivalent to 8.4 g iron/ha) to 2240 g product/ha (equivalent to 134 g iron/ha).

[7] = test system: HPPD-tolerant soybean event SYHT0H2; assay: Glasshouse: post-emergence HPPD herbicide damage with or without Sequestrene 138Fe, 7 DAA; type: in vivo; details: isoxaflutole, tembotrione
Description: (§4) Safening of Various HPPD-inhibiting Herbicides in HPPD-tolerant Soybean Events SYHT04R and SYHT0H2
(§5) An experiment is performed to determine whether the addition of chelating iron to the spray formulation can mitigate foliar bleaching injury from the HPPD herbicides mesotrione, bicyclopyrone, tembotrione, isoxaflutole, topramezone and pyrasulfatole when applied post-emergence to the HPPD-tolerant soybean events SYHT04R and SYHT0H2.
(§6) Soybean plants are grown in a glasshouse (24° C. day, 18° C. night; 65% relative humidity; 16 hour photoperiod). Two replicates are utilised in respect of SYHT0H2 (growth stage V1-V3) and three replicates are utilised in respect of SYHT04R (growth stage V1 to V3). Spray applications are applied post-emergence at […]. Herbicide damage was assessed 7 DAA (Days After Application).

[8] = test system: HPPD-tolerant soybean event SYHT04R; assay: as above; type: in vivo; details: isoxaflutole, tembotrione
Description: as §4, §5, §6

[9] = Sequestrene 138Fe 1000 g/ha, g ai/ha: mesotrione 200, bicyclopyrone, pyrasulfatole 100, topramazone 50
[10] = Sequestrene 138Fe 1000 g/ha, g ai/ha: mesotrione 800, bicyclopyrone, pyrasulfatole 400, topramazone 200
[11] = no Sequestrene 138Fe, g ai/ha: mesotrione 200, bicyclopyrone, pyrasulfatole 100, topramazone 50
[12] = no Sequestrene 138Fe, g ai/ha: mesotrione 800, bicyclopyrone, pyrasulfatole 400, topramazone 200

## CS(=O)(=O)c1ccc(C(=O)C2C(=O)CCCC2=O)c([N+](=O)[O-])c1 [Mesotrione, mesotrione]
SYHT0H2 soybeans [1]
  % Injury: 17%
[2]; Sequestrene 138Fe 0 g/ha, g ai/ha: mesotrione 26, isoxaflutole 26, bicyclopyrone 50, tembotrione 46, pyrasulfatole 22, topramezone 18
  % Injury: 100%
[2]; Sequestrene 138Fe 140 g/ha tank mix, mesotrione 26, isoxaflutole 26 g ai/ha
  % Injury: 100%
[3]; Trt 2: mesotrione 100 gai/ha alone, 3DAA
  % herbicide damage: 35% and 25% and 20%
[3]; Trt 2: mesotrione 100 gai/ha alone, 7DAA
  % herbicide damage: 55% and 30% and 35%
[3]; Trt 2: mesotrione 100 gai/ha alone, 14DAA
  % herbicide damage: 40% and 25% and 20% and 30%
[3]; Trt 4: mesotrione 50 gai/ha + Sequestrene 138 1000 g/ha, 7DAA
  % herbicide damage: 0%
[3]; Trt 4: mesotrione 50 gai/ha + Sequestrene 138 1000 g/ha, 14DAA
  % herbicide damage: 0%
[3]; Trt 5: mesotrione 100 gai/ha + Sequestrene 138 1000 g/ha, 3DAA
  % herbicide damage: 10% and 5%
[3]; Trt 5: mesotrione 100 gai/ha + Sequestrene 138 1000 g/ha, 7DAA
  % herbicide damage: 0%
[3]; Trt 6: mesotrione 150 gai/ha + Sequestrene 138 1000 g/ha, 3DAA
  % herbicide damage: 5% and 15% and 10%
[3]; Trt 6: mesotrione 150 gai/ha + Sequestrene 138 1000 g/ha, 14DAA
  % herbicide damage: 5% and 0%
[4]; Trt 7: mesotrione 200 gai/ha alone, 3DAA
  % herbicide damage: 10% and 5%
[4]; Trt 7: mesotrione 200 gai/ha alone, 7DAA
  % herbicide damage: 10% and 0%
[4]; Trt 7: mesotrione 200 gai/ha alone, 14DAA
  % herbicide damage: 10% and 0%
[4]; Trt 8: mesotrione 300 gai/ha alone, 3DAA
  % herbicide damage: 15% and 10%
[4]; Trt 9: mesotrione 400 gai/ha alone, 3DAA
  % herbicide damage: 20% and 15%
[4]; Trt 9: mesotrione 400 gai/ha alone, 7DAA
  % herbicide damage: 20% and 25%
[4]; Trt 10: mesotrione 200 gai/ha + Sequestrene 138 1000 g/ha, 3DAA
  % herbicide damage: 0% and 5%
[4]; Trt 10: mesotrione 200 gai/ha + Sequestrene 138 1000 g/ha, 7DAA
  % herbicide damage: 0%
[4]; Trt 11: mesotrione 300 gai/ha + Sequestrene 138 1000 g/ha, 3DAA
  % herbicide damage: 0% and 5% and 10%
[4]; Trt 11: mesotrione 300 gai/ha + Sequestrene 138 1000 g/ha, 7DAA
  % herbicide damage: 10% and 5% and 0%
[4]; Trt 12: mesotrione 400 gai/ha + Sequestrene 138 1000 g/ha, 3DAA
  % herbicide damage: 10% and 0%
[4]; Trt 12: mesotrione 400 gai/ha + Sequestrene 138 1000 g/ha, 7DAA
  % herbicide damage: 5% and 0%
[4]; Trt 12: mesotrione 400 gai/ha + Sequestrene 138 1000 g/ha, 14DAA
  % herbicide damage: 10% and 5%
[5]; Trt 13: mesotrione 400 gai/ha alone, 3DAA
  % herbicide damage: 55% and 45% and 50% and 60% and 40%
[5]; Trt 13: mesotrione 400 gai/ha alone, 7DAA
  % herbicide damage: 70% and 65%
[5]; Trt 13: mesotrione 400 gai/ha alone, 14DAA
  % herbicide damage: 65% and 45% and 50%
[5]; Trt 14: mesotrione 500 gai/ha alone, 3DAA
  % herbicide damage: 55% and 60% and 65%
[5]; Trt 14: mesotrione 500 gai/ha alone, 7DAA
  % herbicide damage: 75% and 70%
[5]; Trt 14: mesotrione 500 gai/ha alone, 14DAA
  % herbicide damage: 70% and 65% and 60%
[5]; Trt 15: mesotrione 600 gai/ha alone, 7DAA
  % herbicide damage: 55% and 75% and 78%
[5]; Trt 15: mesotrione 600 gai/ha alone, 14DAA
  % herbicide damage: 40% and 65% and 50% and 70%
[5]; Trt 16: mesotrione 400 gai/ha + Sequestrene 138 1000 g/ha, 3DAA
  % herbicide damage: 0% and 5% and 10%
[5]; Trt 16: mesotrione 400 gai/ha + Sequestrene 138 1000 g/ha, 7DAA
  % herbicide damage: 15% and 10%
[5]; Trt 16: mesotrione 400 gai/ha + Sequestrene 138 1000 g/ha, 14DAA
  % herbicide damage: 15% and 10% and 5%
SYHT0H2 soybeans [6]; Sequestrene 138Fe 0 g/ha
  % Injury: 15%
SYHT0H2 soybeans [6]; Sequestrene 138Fe 140 g/ha tank mix
  % Injury: 13%
SYHT0H2 soybeans [6]; Sequestrene 138Fe 280 g/ha tank mix
  % Injury: 2%
SYHT0H2 soybeans [6]; Sequestrene 138Fe 560 g/ha tank mix
  % Injury: 1%
SYHT0H2 soybeans [6]; Sequestrene 138Fe 1120 g/ha tank mix
  % Injury: 0%
SYHT0H2 soybeans [6]; Sequestrene 138Fe 2240 g/ha tank mix
  % Injury: 0%
[7]; [9]
  Herbicide damage SYHT0H2: 3
[7]; [10]
  Herbicide damage SYHT0H2: 18
[7]; [11]
  Herbicide damage SYHT0H2: 13
[7]; [12]
  Herbicide damage SYHT0H2: 23
[8]; [9]
  Herbicide damage SYHT04R: 2
[8]; [10]
  Herbicide damage SYHT04R: 17
[8]; [11]
  Herbicide damage SYHT04R: 8
[8]; [12]
  Herbicide damage SYHT04R: 32
